This passage reports EC50 and IC50 results from patent publication US10316017B2, “COT modulators and methods of use thereof” (Gilead Sciences, Inc., priority 2015, dated 2019).

In assay [1] the test system is TNFα production in LPS-stimulated human monocytes. As to the kind of experiment: Cot Monocyte TNFα Cell Based Assay. The settings on record: Homo sapiens, Monocyte, TNFα in LPS-stimulated human monocytes; read-out: EC50 TNF. The method in brief: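 TNFα release quantified by two-antibody TR-FRET, normalised to unstimulated (0%) and LPS-stimulated (100%) wells. Cells got a 1 h compound exposure at 37° C in 0.5% DMSO before 4 h challenge with 50 pg/ml LPS, at 5,000 cells/well.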

For assay [2], the target named is T1, human Cot catalytic domain (30-397 amino acids) (Homo sapiens, UniProt P41279).
T1 construct: Purified recombinant human Cot catalytic domain (30-397 amino acids) was purchased from Cama Biosciences; purchased Cama Biosciences (so in the source)
As to the kind of experiment: High Throughput Cot Biochemical Assay (KinEASE TR-FRET). The following applies: Cot KinEASE TR-FRET (HTRF) biochemical assay, 400 μM ATP; read-out: IC50 HTRF. A digest of the protocol: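 TR-FRET (KinEASE) read-out: Eu-labelled phospho-specific antibody binds XL665-tagged STK3 peptide (1 μM) phosphorylated by 5 nM human Cot kinase domain (residues 30-397). Reaction at 400 μM ATP, pH 7.0 MOPS buffer with 10 mM MgOAc, 1 mM DTT and 0.1% DMSO.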

T1 sequence (P41279 30-397): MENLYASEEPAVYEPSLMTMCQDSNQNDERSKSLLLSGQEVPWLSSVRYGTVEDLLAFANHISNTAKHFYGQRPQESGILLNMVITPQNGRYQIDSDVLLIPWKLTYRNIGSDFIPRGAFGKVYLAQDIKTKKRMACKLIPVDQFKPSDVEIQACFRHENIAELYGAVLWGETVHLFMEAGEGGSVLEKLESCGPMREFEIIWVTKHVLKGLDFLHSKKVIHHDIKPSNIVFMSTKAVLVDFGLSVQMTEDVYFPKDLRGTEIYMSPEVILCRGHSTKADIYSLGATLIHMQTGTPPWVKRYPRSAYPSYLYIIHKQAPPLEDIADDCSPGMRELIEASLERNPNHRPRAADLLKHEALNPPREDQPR

In general, EC50 refers to the concentration needed to bring the measured effect to its halfway point. A word on the IC50: it is the point on the concentration scale where inhibition reaches its midpoint. Consider `CNC(=O)c1cccc([C@H](Nc2cc(C#N)c3ncc(C#N)c(NCC(C)(C)C)c3c2)c2cn(C3CC3)nn2)c1` [Example 55, (S)-3-((1-cyclopropyl-1H-1,2,3-triazol-4-yl) ((3,8-dicyano-4-(neopentylamino)quinolin-6-yl)amino)methyl)-N-methylbenzamide], for which, in assay [1], the EC50 was 414 nM. Further, the IC50 in assay [2] was 2 nM.

For the compound `CC(C)(C)CNc1c(C#N)cnc2c(C#N)cc(N[C@@H](c3cccc(C(=O)N4CC(F)(F)C4)c3)c3cn(C4CC4)nn3)cc12` [Example 56, (S)-6-(((1-cyclopropyl-1H-1,2,3-triazol-4-yl)(3-(3,3-difluoroazetidine-1-carbonyl)phenyl)methyl)amino)-4-(neopentylamino) quinoline-3,8-dicarbonitrile], the EC50 in assay [1] was determined as 184 nM. The IC50 in assay [2] came to 3 nM.

As for `CC(C)(C)CNc1c(C#N)cnc2c(C#N)cc(N[C@@H](c3cccc(C(=O)N4CC(O)C4)c3)c3cn(C4CC4)nn3)cc12` [Example 57, (S)-6-(((1-cyclopropyl-1H-1,2,3-triazol-4-yl) (3-(3-hydroxyazetidine-1-carbonyl)phenyl)methyl)amino)-4-(neopentylamino) quinoline-3,8-dicarbonitrile], in assay [1], the EC50 was more than 1000 nM. Besides, the IC50 in assay [2] is 3 nM.

Consider `[2H][C@](Nc1cc(-c2cnco2)c2ncc(C#N)c(NCC(C)(C)C)c2c1)(c1ccc(F)cc1)c1cn(C2CC2)nn1` [Example 63, (S)-6-(((1-cyclopropyl-1H-1,2,3-triazol-4-yl)(4-fluorophenyl)methyl-d)amino)-4-(neopentylamino)-8-(oxazol-5-yl)quinoline-3-carbonitrile], for which the EC50 in assay [1] is more than 1000 nM. For the same compound, the IC50 in assay [2] came out at 213 nM.

Take `[2H][C@](Nc1cc(Cl)c2ncc(C#N)c(NC3CCOC(C)(C)C3)c2c1)(c1ccc(F)cc1)c1cn(C2CC2)nn1` (stereo partly drawn) [Example 64, 8-chloro-6-(((S)-(1-cyclopropyl-1H-1,2,3-triazol-4-yl)(4-fluorophenyl)methyl-d)amino)-4-((2,2-dimethyltetrahydro-2H-pyran-4-yl)amino) quinoline-3-carbonitrile]: in assay [1], the EC50 is more than 1000 nM. The IC50 in assay [2] came out at 106 nM.

Turning to `N#CCC[C@@H](Nc1c(C#N)cnc2c(Cl)cc(N[C@H](c3cn(C4COC4)nn3)c3ccccc3Cl)cc12)c1ccccc1` [Example 65, 8-chloro-6-(((S)-(2-chlorophenyl)(1-(oxetan-3-yl)-1H-3-triazol-4-yl)methyl)amino)-4-(((R)-3-cyano-1-phenylpropyl)amino) quinoline-3-carbonitrile], the EC50 in assay [1] was 95 nM. Moreover, the IC50 in assay [2] is 3 nM.

For `N#CCC[C@@H](Nc1c(C#N)cnc2c(Cl)cc(N[C@H](c3cn(CC#N)nn3)c3ccccc3Cl)cc12)c1ccccc1` [Example 66, 8-chloro-6-(((S)-(2-chlorophenyl)(1-(cyanomethyl)-1H-1,2,3-triazol-4-yl)methyl)amino)-4-(((R)-3-cyano-1-phenylpropyl)amino) quinoline-3-carbonitrile], in assay [1], the EC50 worked out at 96 nM. In addition, in assay [2], the 50% inhibitory concentration (IC50) came out at 5 nM.

With `N#CCC[C@@H](Nc1c(C#N)cnc2c(Cl)cc(N[C@H](c3cn(C(F)(F)CO)nn3)c3ccccc3Cl)cc12)c1ccccc1` [Example 67, 8-chloro-6-(((S)-(2-chlorophenyl)(1-(1,1-difluoro-2-hydroxyethyl)-1H-1,2,3-triazol-4-yl)methyl)amino)-4-(((R)-3-cyano-1-phenylpropyl)amino) quinoline-3-carbonitrile], the EC50 in assay [1] was determined as 41 nM. The IC50 in assay [2] is 2 nM.

For the compound `CC(C)(C)CNc1c(C#N)cnc2c(C#N)cc(N[C@@H](c3cccc(NS(C)(=O)=O)c3)c3cn(C4CC4)nn3)cc12` [Example 68, (S)-N-(3-((1-cyclopropyl-1H-1,2,3-triazol-4-yl)((3,8-dicyano-4-(neopentylamino)quinolin-6-yl)amino)methyl)phenyl)methanesulfonamide], the EC50 in assay [1] is more than 1000 nM. Besides, the IC50 in assay [2] was 3 nM.

Take `CN(c1cccc([C@H](Nc2cc(C#N)c3ncc(C#N)c(NCC(C)(C)C)c3c2)c2cn(C3CC3)nn2)c1)S(C)(=O)=O` [Example 69, (S)-N-(3-((1-cyclopropyl-1H-1,2,3-triazol-4-yl)((3,8-dicyano-4-(neopentylamino)quinolin-6-yl)amino)methyl)phenyl)-N-methylmethanesulfonamide]: the EC50 in assay [1] turned out to be 124 nM. Further, in assay [2], the IC50 is 3 nM.

As for `CC(C)(C)CNc1c(C#N)cnc2c(Cl)cc(N[C@H](c3cn(C4(C(N)=O)CC4)nn3)c3ccccc3Cl)cc12` [Example 70, (S)-1-(4-(((8-chloro-3-cyano-4-(neopentylamino)quinolin-6-yl)amino) (2-chlorophenyl)methyl)-1H-1,2,3-triazol-1-yl) cyclopropane-1-carboxamide], the EC50 in assay [1] was 124 nM. Also, the IC50 in assay [2] was 9 nM.

`N#CCC[C@@H](Nc1c(C#N)cnc2c(Cl)cc(N[C@H](c3cn(CC(N)=O)nn3)c3ccccc3Cl)cc12)c1ccccc1` [Example 71, 2-(4-((S)-((8-chloro-3-cyano-4-(((R)-3-cyano-1-phenylpropyl)amino)quinolin-6-yl)amino) (2-chlorophenyl)methyl)-1H-1,2,3-triazol-1-yl) acetamide]: the EC50 in assay [1] turned out to be 657 nM. Besides, in assay [2], the IC50 amounted to 4 nM.

Consider `CC1(n2cc([C@@H](Nc3cc(Cl)c4ncc(C#N)c(N[C@H](CCC#N)c5ccccc5)c4c3)c3ccccc3Cl)nn2)CC1` [Example 72, 8-chloro-6-(((S)-(2-chlorophenyl)(1-(1-methylcyclopropyl)-1H-1,2,3-triazol-4-yl)methyl)amino)-4-(((R)-3-cyano-1-phenylpropyl)amino)quinoline-3-carbonitrile], for which the EC50 in assay [1] came out at 66 nM. Further, the IC50 in assay [2] was 2 nM.

For the compound `N#CCC[C@@H](Nc1c(C#N)cnc2c(Cl)cc(N[C@H](c3cn(C4(C#N)CC4)nn3)c3ccccc3Cl)cc12)c1ccccc1` [Example 73, 8-chloro-6-(((S)-(2-chlorophenyl)(1-(1-cyanocyclopropyl)-1H-1,2,3-triazol-4-yl)methyl)amino)-4-(((R)-3-cyano-1-phenylpropyl)amino) quinoline-3-carbonitrile], the EC50 in assay [1] is 34 nM. For the same compound, the IC50 in assay [2] was 2 nM.

`[2H][C@](Nc1cc(Cl)c2ncc(C#N)c(N[C@H](CCC#N)c3ccccc3)c2c1)(c1ccc(Cl)cc1)c1cn(C2CC2)nn1` [Example 74, 8-chloro-6-(((S)-(4-chlorophenyl)(1-cyclopropyl-1H-1,2,3-triazol-4-yl)methyl-d)amino)-4-(((R)-3-cyano-1-phenylpropyl)amino) quinoline-3-carbonitrile]: the EC50 in assay [1] worked out at 30 nM. Further, the IC50 in assay [2] was 3 nM.

For the compound `[2H][C@](Nc1cc(-c2ccnnc2)c2ncc(C#N)c(NCC(C)(C)C)c2c1)(c1ccc(F)cc1)c1cn(C2CC2)nn1` [Example 75, (S)-6-(((1-cyclopropyl-1H-1,2,3-triazol-4-yl)(4-fluorophenyl)methyl-d)amino)-4-(neopentylamino)-8-(pyridazin-4-yl)quinoline-3-carbonitrile], in assay [1], the EC50 is more than 1000 nM. Also, the IC50 in assay [2] is 199 nM.

As to `CC(=O)Nc1cccc([C@H](Nc2cc(C#N)c3ncc(C#N)c(NCC(C)(C)C)c3c2)c2cn(C3CC3)nn2)c1` [Example 76, (S)-N-(3-((1-cyclopropyl-1H-1,2,3-triazol-4-yl)((3,8-dicyano-4-(neopentylamino)quinolin-6-yl)amino)methyl)phenyl)acetamide], the EC50 in assay [1] worked out at 462 nM. For the same compound, the IC50 in assay [2] amounted to 2 nM.

Regarding `CC(C)(C)CNc1c(C#N)cnc2c(C#N)cc(N[C@@H](c3ccc(Cl)cc3)c3cn(C4CC4)nn3)cc12` [Example 77, (S)-6-(((4-chlorophenyl) (1-cyclopropyl-1H-1,2,3-triazol-4-yl)methyl)amino)-4-(neopentylamino) quinoline-3,8-dicarbonitrile], the EC50 in assay [1] amounted to 108 nM. For the same compound, the IC50 in assay [2] came out at 9 nM.

Consider `CC(=O)N(C)c1cccc([C@H](Nc2cc(Br)c3ncc(C#N)c(NCC(C)(C)C)c3c2)c2cn(C3CC3)nn2)c1` [Example 78, (S)-N-(3-(((8-bromo-3-cyano-4-(neopentylamino)quinolin-6-yl)amino) (1-cyclopropyl-1H-1,2,3-triazol-4-yl)methyl)phenyl)-N-methylacetamide], for which the concentration giving a half-maximal response (EC50) in assay [1] turned out to be 436 nM. The IC50 in assay [2] amounted to 5 nM.

In the case of `CC(=O)Nc1cccc([C@H](Nc2cc(Br)c3ncc(C#N)c(NCC(C)(C)C)c3c2)c2cn(C3CC3)nn2)c1` [Example 79, (S)-N-(3-(((8-bromo-3-cyano-4-(neopentylamino)quinolin-6-yl)amino) (1-cyclopropyl-1H-1,2,3-triazol-4-yl)methyl)phenyl)acetamide], the EC50 in assay [1] was determined as 278 nM. Also, the IC50 in assay [2] worked out at 8 nM.

As for `[2H][C@](Nc1cc(Br)c2ncc(C#N)c(NCC(C)(C)C)c2c1)(c1ccc(Cl)cc1)c1cn(C2CC2)nn1` [Example 80, (S)-8-bromo-6-(((4-chlorophenyl)(1-cyclopropyl-1H-1,2,3-triazol-4-yl)methyl-d)amino)-4-(neopentylamino) quinoline-3-carbonitrile], the EC50 in assay [1] is 395 nM. Besides, in assay [2], the IC50 came to 31 nM.

Consider `[2H][C@](Nc1cc(-c2cncnc2)c2ncc(C#N)c(N[C@H](CC)c3ccccc3)c2c1)(c1ccc(F)cc1)c1cn(C2CC2)nn1` [Example 81, 6-(((S)-(1-cyclopropyl-1H-1,2,3-triazol-4-yl)(4-fluorophenyl)methyl-d)amino)-4-(((R)-1-phenylpropyl)amino)-8-(pyrimidin-5-yl)quinoline-3-carboitrile], for which the EC50 in assay [1] is 316 nM. Further, the IC50 in assay [2] is 20 nM.
